Assays:
[1] = system: Green foxtail (SETVI); assay: pre-emergence test, weed control; format: in vivo, Setaria viridis; conditions: pre-emergent, 28 DAT
Protocol: (§1) Test compositions containing the test compounds were diluted with water to provide the appropriate test rate concentrations.
(§2) For pre-emergence testing, four disposable fiber flats (6 inch by 10 inch) for each rate of application of each herbicide solution were filled with top soil, to which seeds of each species were planted in furrows made by a template pressed on the top of the soil. The furrows were covered with soil after planting the seed and were watered well before application of the test compounds.
(§3) Fiber flats designated for treatment were placed in a spray chamber having a static platform and a movable sprayer and the height of the spray nozzle was 10.5 inches above the soil level. Once the sprayer was calibrated using water for spray volume of 30 gallons per acre, flats were sprayed with sprayer at a speed to receive a coverage equivalent of 30 gallons per acre. The application rates are those shown in the Tables below for the individual herbicidal solutions and the herbicide compositions of this invention. The pre-emergence flats were immediately placed in the greenhouse and watered lightly after treatment. Thereafter they were regularly watered and fertilized for the duration of the test.
(§4) The control of weeds was evaluated in each experimental test at 21 for wheat and 28 days after treatment (DAT) for all species. Data were analyzed using Minitab software at 95% confidence interval. The results, shown as an average of the replications, were compared with results observed in untreated control flats in the same tests. Percent control was determined by a method similar to the 0 to 100 rating system disclosed in “Research Methods in Weed Science,” 2nd ed., B. Truelove, Ed.; Southern Weed Science Society; Auburn University, Auburn, Ala., 1977. The rating system is as follows in Table 1.

[2] = system: Wild oat (AVEFA); assay: pre-emergence test, weed control; format: in vivo, Avena fatua; conditions: pre-emergent; for percentage of weed control, AVEFA: 28 DAT; for percentage of weed control, Wild Oat AVEFA: 21 DAT, rate g ai/ha by row: r4 94, r5 125, r6 250, r7 125, r8 250, r9 500, r10 94+125, r11 125+125, r12 94+250, r13 125+250, r14 94+500, r15 125+500
Protocol: as §1, §2, §3, §4

[3] = system: Blackgrass (ALOMY); assay: pre-emergence test, weed control; format: in vivo; conditions: pre-emergent, 28 DAT
Protocol: as §1, §2, §3, §4

[4] = system: Yellow foxtail (SETLU); assay: pre-emergence test, weed control; format: in vivo; conditions: pre-emergent, 28 DAT
Protocol: as §1, §2, §3, §4

[5] = system: Palmer amaranth (AMAPA); assay: pre-emergence test, weed control; format: in vivo, Amaranthus palmeri; conditions: pre-emergent, 28 DAT, (−)-BFL >95% e.e., rate g ai/ha by row: r6 62, r7 125, r8 125, r9 250, r10 445, r11 890, r12 45, r13 90, r14 62+125, r15 125+125, r16 62+250, r17 125+250, r18 62+445, r19 125+445, r20 62+890, r21 125+890, r22 62+45, r23 125+45, r24 62+90, r25 125+90
Protocol: as §1, §2, §3, §4

[6] = system: crop and weed species; assay: pre-emergence test, several crop and weed species together; format: in vivo; conditions: pre-emergent, 28 DAT (Tables 16 and 17), >95% e.e.
Protocol: as §1, §2
Fiber flats designated for treatment were placed in a spray chamber having a static platform and a movable sprayer and the height of the spray nozzle was 10.5 inches above the soil level. Once the sprayer was calibrated using water for spray volume of 30 gallons per acre, flats were sprayed with sprayer at a speed to receive a coverage equivalent of 30 gallons per acre. […]
The control of weeds was evaluated in each experimental test at 21 for wheat and 28 days after treatment (DAT) for all species. Data were analyzed using Minitab software at 95% confidence interval. […] Percent control was determined by a method similar to the 0 to 100 rating system disclosed in “Research Methods in Weed Science,” 2nd ed., B. Truelove, Ed.; Southern Weed Science Society; Auburn University, Auburn, Ala., 1977. […]

[7] = system: Velvetleaf (ABUTH); assay: pre-emergence test, weed control; format: in vivo, Abutilon theophrasti; conditions: pre-emergent, 21 DAT, rate g ai/ha by row: r4 94, r5 125, r6 250, r7 125, r8 250, r9 500, r10 94+125, r11 125+125, r12 94+250, r13 125+250, r14 94+500, r15 125+500
Protocol: as §1, §2, §3, §4

[8] = system: velvetleaf (IPOHE); assay: pre-emergence test, weed control; format: in vivo; conditions: pre-emergent, 21 DAT, rate g ai/ha by row: r4 94, r5 125, r6 250, r7 125, r8 250, r9 500, r10 94+125, r11 125+125, r12 94+250, r13 125+250, r14 94+500, r15 125+500
Protocol: as §1, §2, §3, §4

[9] = system: Large crabgrass (DIGSA); assay: pre-emergence test, weed control; format: in vivo; conditions: pre-emergent, 28 DAT, rate g ai/ha by row: r4 94, r5 50, r6 100, r7 52.5, r8 70, r9 94+52.5, r10 94+70, r11 50+52.5, r12 50+70, r13 100+52.5, r14 100+70
Protocol: as §1, §2, §3, §4

[10] = system: Common lambsquarters (CHEAL); assay: pre-emergence test, weed control; format: in vivo, Chenopodium album; conditions: pre-emergent, 28 DAT, (+)-BFL >95% e.e.; rate g ai/ha by row: r6 62.5, r7 125, r8 62.5, r9 125, r10 222, r11 445, r12 22.5, r13 45, r14 62.5+62.5, r15 125+62.5, r16 62.5+125, r17 125+125, r18 62.5+222, r19 125+222, r20 62.5+445, r21 125+445, r22 62.5+22.5, r23 125+22.5, r24 62.5+45, r25 125+45
Protocol: as §1, §2, §3, §4

[11] = system: Jimsonweed (DATST); assay: pre-emergence test, weed control; format: in vivo, Datura stramonium; conditions: pre-emergent, 28 DAT; BFL at 62.5 g, PTX at 90 g, combination of both
Protocol: as §1, §2, §3, §4

[12] = system: Green foxtail (SETVI); assay: post-emergence test, weed control; format: in vivo, Setaria viridis; conditions: post-emergent, 28 DAT; BFL at 187.5 g, PTX at 890 g, combination of both
Protocol: as §1
For post-emergence testing, seeds of each species for each rate of application of each herbicide solution were planted in 7.5 cm×7.5 cm plastic pots filled with potting soil. The seeds were germinated and the resulting plants were allowed to grow in a greenhouse until they reached a growth stage, such as height, suitable for testing. Treatments were applied using compressed air in a track spray chamber at 30 gallons/acre (280 L/ha) using a TeeJet 8001E nozzle at 40 psi (2.76 bars). Pots of post-emergent treated plants were returned to the greenhouse and not watered for 24 hours after treatment. Thereafter they were regularly watered and fertilized for the duration of the test.
as §4

[13] = (−)-BFL >95% e.e., rate g ai/ha by row: r6 62, r7 125, r8 125, r9 250, r10 445, r11 890, r12 45, r13 90, r14 62+125, r15 125+125, r16 62+250, r17 125+250, r18 62+445, r19 125+445, r20 62+890, r21 125+890, r22 62+45, r23 125+45, r24 62+90, r25 125+90, 62 g ai/ha
[14] = (−)-BFL >95% e.e., rate g ai/ha by row: r6 62, r7 125, r8 125, r9 250, r10 445, r11 890, r12 45, r13 90, r14 62+125, r15 125+125, r16 62+250, r17 125+250, r18 62+445, r19 125+445, r20 62+890, r21 125+890, r22 62+45, r23 125+45, r24 62+90, r25 125+90, 125 g ai/ha
[15] = (+)-BFL >95% e.e., rate g ai/ha by row: r6 62.5, r7 125, r8 62.5, r9 125, r10 222, r11 445, r12 22.5, r13 45, r14 62.5+62.5, r15 125+62.5, r16 62.5+125, r17 125+125, r18 62.5+222, r19 125+222, r20 62.5+445, r21 125+445, r22 62.5+22.5, r23 125+22.5, r24 62.5+45, r25 125+45
[16] = (−)-BFL >95% e.e., rate g ai/ha by row: r6 62, r7 125, r8 125, r9 250, r10 445, r11 890, r12 45, r13 90, r14 62+125, r15 125+125, r16 62+250, r17 125+250, r18 62+445, r19 125+445, r20 62+890, r21 125+890, r22 62+45, r23 125+45, r24 62+90, r25 125+90, 445 g ai/ha
[17] = (−)-BFL >95% e.e., rate g ai/ha by row: r6 62, r7 125, r8 125, r9 250, r10 445, r11 890, r12 45, r13 90, r14 62+125, r15 125+125, r16 62+250, r17 125+250, r18 62+445, r19 125+445, r20 62+890, r21 125+890, r22 62+45, r23 125+45, r24 62+90, r25 125+90, 890 g ai/ha
[18] = (+)-BFL >95% e.e., rate g ai/ha by row: r6 62.5, r7 125, r8 62.5, r9 125, r10 222, r11 445, r12 22.5, r13 45, r14 62.5+62.5, r15 125+62.5, r16 62.5+125, r17 125+125, r18 62.5+222, r19 125+222, r20 62.5+445, r21 125+445, r22 62.5+22.5, r23 125+22.5, r24 62.5+45, r25 125+45, 222 g ai/ha
[19] = (+)-BFL >95% e.e., rate g ai/ha by row: r6 62.5, r7 125, r8 62.5, r9 125, r10 222, r11 445, r12 22.5, r13 45, r14 62.5+62.5, r15 125+62.5, r16 62.5+125, r17 125+125, r18 62.5+222, r19 125+222, r20 62.5+445, r21 125+445, r22 62.5+22.5, r23 125+22.5, r24 62.5+45, r25 125+45, 445 g ai/ha

CC[C@H](Oc1ccc(F)c(C(F)(F)F)c1)C(=O)NCc1ccccc1 [(−)-BFL, (2S)-2-[4-fluoro-3-(trifluoromethyl)phenoxy]-N-(phenylmethyl)butanamide]
percentage of weed control, SETVI [1, 13]: 80%
percentage of weed control, SETVI [1, 14]: 97%
percentage of weed control, AVEFA [2, 13]: 7%
percentage of weed control, AVEFA [2, 14]: 11%
percentage of weed control, ALOMY [3, 13]: 19%
percentage of weed control, ALOMY [3, 14]: 32%
percentage of weed control, SETLU [4, 13]: 86%
percentage of weed control, SETLU [4, 14]: 100%
percentage of weed control, AMAPA ([5]; 62 g ai/ha): 70%
percentage of weed control, AMAPA ([5]; 125 g ai/ha): 97%
herbicidal activity of the enantiomers compared [6]: the more active enantiomer

CCOCN(C(=O)CCl)c1c(C)cccc1CC [Acetochlor]
percentage of weed control, Wild Oat AVEFA ([2]; 125 g ai/ha): 13%
percentage of weed control, Wild Oat AVEFA ([2]; 250 g ai/ha): 11%
percentage of weed control, Velvetleaf ABUTH ([7]; 125 g ai/ha): 10%
percentage of weed control, Velvetleaf ABUTH ([7]; 250 g ai/ha): 11%
percentage of weed control, Morningglory IPOHE ([8]; 125 g ai/ha): 5%
percentage of weed control, Morningglory IPOHE ([8]; 250 g ai/ha): 6%
percentage of weed control, Morningglory IPOHE ([8]; 500 g ai/ha): 8%

O=C(Nc1ccc(F)cc1F)c1cccnc1Oc1cccc(C(F)(F)F)c1 [Diflufenican]
percentage of weed control, DIGSA ([9]; 50 g ai/ha): 18%
percentage of weed control, DIGSA ([9]; 100 g ai/ha): 30%

CCOCCN(C(=O)CCl)C(=C(C)C)c1ccccc1 [PTX, Pethoxamid]
percentage of weed control, CHEAL [10]: 100%
percentage of weed control, SETVI [1, 15]: 99%
percentage of weed control, SETVI [1, 16]: 98%
percentage of weed control, SETVI [1, 17]: 100%
control of jimsonweed [11]: 4%
percentage of weed control, AVEFA [2, 18]: 84%
percentage of weed control, AVEFA [2, 19]: 92%
percentage of weed control, AVEFA [2, 16]: 89%
percentage of weed control, AVEFA [2, 17]: 92%
percentage of weed control, ALOMY [3, 18]: 70%
percentage of weed control, ALOMY [3, 19]: 96%
percentage of weed control, ALOMY [3, 16]: 59%
percentage of weed control, ALOMY [3, 17]: 83%
percentage of weed control, SETLU [4, 15]: 99%
percentage of weed control, SETLU [4, 16]: 99%
percentage of weed control, SETLU [4, 17]: 100%
percentage of weed control, AMAPA ([5]; 445 g ai/ha): 98%
percentage of weed control, AMAPA ([5]; 890 g ai/ha): 100%
control of green foxtail [12]: 4%
